Measured values taken from ChEMBL document CHEMBL5154721, “Discovery of HDAC6-Selective Inhibitor NN-390 with in Vitro Efficacy in Group 3 Medulloblastoma” (J Med Chem, 2022).
Calls of active or inactive are those of the source. No cut-off for these calls is given here.

Columns and labels:
[1] = system: MV4-11; test: Induction of apoptosis in human MV4-11 cells assessed as early apoptotic cells at 0.25 uM after 24 hrs by Annexin V/PI staining based flow cytometric analysis (Rvb=2%); format: functional
[2] = target: T1, Protein deacetylase HDAC6 (Homo sapiens) (UniProt Q9UBN7); test: Binding affinity to full length human recombinant HDAC6 expressed in Sf9 baculovirus system assessed as residence time (1/koff)
T1 sequence (whole entry): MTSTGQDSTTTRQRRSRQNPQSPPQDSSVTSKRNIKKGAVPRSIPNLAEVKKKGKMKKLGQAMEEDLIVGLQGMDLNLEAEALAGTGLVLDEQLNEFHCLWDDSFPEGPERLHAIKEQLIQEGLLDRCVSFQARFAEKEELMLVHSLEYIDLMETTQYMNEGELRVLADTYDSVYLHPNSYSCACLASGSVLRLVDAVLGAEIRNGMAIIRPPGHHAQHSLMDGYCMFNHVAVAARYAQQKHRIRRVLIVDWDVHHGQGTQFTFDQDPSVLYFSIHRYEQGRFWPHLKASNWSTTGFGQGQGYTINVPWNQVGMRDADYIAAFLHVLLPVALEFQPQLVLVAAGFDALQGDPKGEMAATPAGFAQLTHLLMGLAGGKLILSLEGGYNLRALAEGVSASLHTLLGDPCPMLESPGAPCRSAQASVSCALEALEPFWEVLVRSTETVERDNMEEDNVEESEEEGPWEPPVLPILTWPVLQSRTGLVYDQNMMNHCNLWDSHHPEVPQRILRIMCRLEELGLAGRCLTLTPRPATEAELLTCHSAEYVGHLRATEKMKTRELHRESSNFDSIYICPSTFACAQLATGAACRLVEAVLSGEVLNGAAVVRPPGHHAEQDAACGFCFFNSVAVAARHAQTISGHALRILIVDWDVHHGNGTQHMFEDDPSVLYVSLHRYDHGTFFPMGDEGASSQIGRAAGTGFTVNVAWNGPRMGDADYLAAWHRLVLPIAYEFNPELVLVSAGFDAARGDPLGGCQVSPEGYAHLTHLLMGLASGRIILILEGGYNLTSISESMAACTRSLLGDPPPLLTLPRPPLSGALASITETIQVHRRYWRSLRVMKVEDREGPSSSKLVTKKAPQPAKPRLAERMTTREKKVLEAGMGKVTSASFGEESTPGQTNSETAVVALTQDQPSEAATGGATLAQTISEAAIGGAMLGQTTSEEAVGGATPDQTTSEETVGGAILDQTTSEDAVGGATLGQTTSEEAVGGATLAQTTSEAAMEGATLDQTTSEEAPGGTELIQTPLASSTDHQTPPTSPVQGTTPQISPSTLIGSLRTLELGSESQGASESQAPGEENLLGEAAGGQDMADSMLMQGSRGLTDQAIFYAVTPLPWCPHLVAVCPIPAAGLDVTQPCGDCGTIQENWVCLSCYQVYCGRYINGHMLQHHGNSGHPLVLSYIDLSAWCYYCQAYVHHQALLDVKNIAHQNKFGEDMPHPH

[3] = system: MB002; test: Cytotoxicity against refractory human group 3 SU_MB002 cells; format: functional, cell-based
[4] = system: MM1.S; test: Cytotoxicity against human MM1.S cells assessed as inhibition of cell growth incubated for 72 hrs measured by spectrophotometer analysis; format: functional, cell-based
[5] = system: MV4-11; test: Induction of apoptosis in human MV4-11 cells assessed as early apoptotic cells at 0.75 uM after 24 hrs by Annexin V/PI staining based flow cytometric analysis (Rvb=2%); format: functional
[6] = system: MV4-11; test: Induction of apoptosis in human MV4-11 cells assessed as viable cells at 2 uM after 24 hrs by Annexin V/PI staining based flow cytometric analysis (Rvb=58.28%); format: functional; conditions: read-out: Activity
[7] = system: MV4-11; test: Induction of apoptosis in human MV4-11 cells assessed as late apoptotic cells at 0.25 uM after 24 hrs by Annexin V/PI staining based flow cytometric analysis (Rvb=8.13%); format: functional
[8] = target: T2, Histone deacetylase 7 (Homo sapiens, UniProt Q8WUI4); test: Inhibition of full length human recombinant HDAC7 expressed in Sf9 baculovirus system using FAM-labeled acetylated peptide as substrate by measuring fluorescence intensity by EMSA method
T2 sequence (Q8WUI4 whole entry): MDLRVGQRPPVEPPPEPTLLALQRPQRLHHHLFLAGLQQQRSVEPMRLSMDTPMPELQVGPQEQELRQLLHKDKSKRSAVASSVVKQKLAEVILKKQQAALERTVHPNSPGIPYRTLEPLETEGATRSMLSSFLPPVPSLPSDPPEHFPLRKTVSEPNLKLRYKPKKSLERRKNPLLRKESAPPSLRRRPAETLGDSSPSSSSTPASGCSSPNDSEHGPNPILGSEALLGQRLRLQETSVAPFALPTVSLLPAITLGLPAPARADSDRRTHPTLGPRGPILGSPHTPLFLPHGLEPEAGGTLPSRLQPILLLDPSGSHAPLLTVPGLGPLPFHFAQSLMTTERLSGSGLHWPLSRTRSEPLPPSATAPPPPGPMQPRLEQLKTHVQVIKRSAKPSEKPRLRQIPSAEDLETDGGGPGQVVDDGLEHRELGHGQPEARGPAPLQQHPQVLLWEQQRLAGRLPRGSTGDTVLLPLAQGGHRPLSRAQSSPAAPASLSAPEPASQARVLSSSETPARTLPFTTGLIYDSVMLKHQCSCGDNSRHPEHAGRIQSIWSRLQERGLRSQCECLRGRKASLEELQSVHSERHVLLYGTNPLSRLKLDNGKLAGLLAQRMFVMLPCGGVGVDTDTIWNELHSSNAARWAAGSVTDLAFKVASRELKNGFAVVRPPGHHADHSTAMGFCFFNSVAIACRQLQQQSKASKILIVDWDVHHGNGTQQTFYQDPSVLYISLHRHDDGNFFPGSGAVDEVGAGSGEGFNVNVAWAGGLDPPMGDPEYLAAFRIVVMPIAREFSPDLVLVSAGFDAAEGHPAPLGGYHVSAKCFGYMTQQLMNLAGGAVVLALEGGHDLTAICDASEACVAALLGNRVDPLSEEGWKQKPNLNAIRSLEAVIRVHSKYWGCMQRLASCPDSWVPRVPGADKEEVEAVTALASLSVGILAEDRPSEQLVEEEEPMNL

[9] = system: MV4-11; test: Induction of apoptosis in human MV4-11 cells assessed as early apoptotic cells at 2 uM after 24 hrs by Annexin V/PI staining based flow cytometric analysis (Rvb=2%); format: functional
[10] = target: T1, Protein deacetylase HDAC6 (Homo sapiens); test: Inhibition of full length human recombinant HDAC6 in human MV4-11 cells assessed as increase in acetylation of histone H3 for 6 hrs by immunofluorescence imaging method; format: cell-based; conditions: dose 0.1-2 µM, DDE = dose-dependent effect
[11] = target: T1, Protein deacetylase HDAC6 (Homo sapiens); test: Inhibition of full length human recombinant HDAC6 in human MV4-11 cells assessed as increase in acetylation of alpha-tubulin at 0.1 uM for 6 hrs by Western blot analysis; format: cell-based
[12] = target: Histone deacetylase 4 (Homo sapiens, UniProt P56524); test: Inhibition of full length human recombinant HDAC4 expressed in Sf9 baculovirus system using FAM-labeled acetylated peptide as substrate by measuring fluorescence intensity by EMSA method
Chain of Histone deacetylase 4 (P56524 whole entry): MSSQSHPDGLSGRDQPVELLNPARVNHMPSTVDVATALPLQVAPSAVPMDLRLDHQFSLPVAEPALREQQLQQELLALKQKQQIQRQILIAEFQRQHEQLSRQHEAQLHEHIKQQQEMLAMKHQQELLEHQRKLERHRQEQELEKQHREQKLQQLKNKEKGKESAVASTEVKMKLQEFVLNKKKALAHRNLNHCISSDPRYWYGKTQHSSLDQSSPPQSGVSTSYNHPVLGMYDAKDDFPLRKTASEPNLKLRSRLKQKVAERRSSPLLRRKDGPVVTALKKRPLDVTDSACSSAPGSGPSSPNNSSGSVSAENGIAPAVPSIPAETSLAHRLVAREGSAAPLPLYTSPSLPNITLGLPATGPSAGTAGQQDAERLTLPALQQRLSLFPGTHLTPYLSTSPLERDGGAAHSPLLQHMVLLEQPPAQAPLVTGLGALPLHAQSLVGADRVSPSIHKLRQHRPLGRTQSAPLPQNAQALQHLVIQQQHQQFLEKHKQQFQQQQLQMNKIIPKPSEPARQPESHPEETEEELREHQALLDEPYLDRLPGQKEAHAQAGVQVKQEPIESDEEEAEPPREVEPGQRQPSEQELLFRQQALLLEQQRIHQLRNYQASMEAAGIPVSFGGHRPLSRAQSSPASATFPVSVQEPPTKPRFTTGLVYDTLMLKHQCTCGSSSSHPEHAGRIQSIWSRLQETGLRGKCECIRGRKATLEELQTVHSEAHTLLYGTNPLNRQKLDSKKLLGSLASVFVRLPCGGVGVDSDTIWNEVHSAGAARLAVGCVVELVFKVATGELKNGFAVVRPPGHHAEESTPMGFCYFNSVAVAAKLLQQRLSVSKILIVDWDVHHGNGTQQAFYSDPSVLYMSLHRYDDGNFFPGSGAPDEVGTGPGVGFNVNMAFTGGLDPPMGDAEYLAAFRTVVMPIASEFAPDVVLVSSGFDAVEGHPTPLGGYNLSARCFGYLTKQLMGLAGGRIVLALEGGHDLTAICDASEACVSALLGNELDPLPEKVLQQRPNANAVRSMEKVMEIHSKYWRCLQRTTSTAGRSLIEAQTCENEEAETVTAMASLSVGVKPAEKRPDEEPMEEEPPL

[13] = system: MV4-11; test: Induction of apoptosis in human MV4-11 cells assessed as late apoptotic cells at 2 uM after 18 hrs by Annexin V/PI staining based flow cytometric analysis; format: functional

TIME [2]: 0.133 h
IC50 [8]: > 5000 nM
inhibition [10]: Dde
inhibition [11]: Active
IC50 [12]: > 4000 nM
SMILES: CC(C)N(Cc1ccc(C(=O)NO)cc1)S(=O)(=O)c1cc(F)c(F)c(F)c1F
Activity [1]: 3.6%
Activity [3]: Active
IC50 [4]: 1380 nM
Activity [5]: 2.28%
viability at 2 µM [6]: 32.9%
Activity [7]: 9%
Activity [9]: 3.59%
Activity [13]: 39%
